#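 Tested at 5 concentrations; 48 h exposure; 96-well plates; endpoints linearly interpolated, else capped at highest concentration. TGI is the concentration that stops growth completely.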
# Assays:
# Test in all cases: NCI-60 cell line screen, 48 h
# [1] = system: A498 renal
# [2] = system: HCT-116 colon
# [3] = system: HCT-15 colon
# [4] = system: HT29 colon
# [5] = system: MALME-3M melanoma
# [6] = system: MDA-MB-231 breast
# [7] = system: NCI-H23 lung
# [8] = system: NCI-H460 lung
# [9] = system: NCI-H522 lung
# [10] = system: OVCAR-3 ovarian
# [11] = system: OVCAR-5 ovarian
# [12] = system: RXF 393 renal
# [13] = system: SF-268 CNS
# [14] = system: SF-539 CNS
# [15] = system: SK-MEL-2 melanoma
# [16] = system: SK-MEL-28 melanoma
# [17] = system: SN12C renal
# [18] = system: SR leukemia
# [19] = system: U251 CNS
# [20] = system: UACC-62 melanoma
smiles,measurement,setting,value
c1ccc([P+](CC[P+](c2ccccc2)(c2ccccc2)c2ccccc2)(c2ccccc2)c2ccccc2)cc1,TGI,[1],> 100 µM
same,TGI,[2],> 100 µM
same,TGI,[3],> 100 µM
same,TGI,[4],> 100 µM
same,TGI,[5],> 63.4 µM
same,TGI,[6],98.4 µM
same,TGI,[7],> 100 µM
same,TGI,[8],35 µM
same,TGI,[9],> 79.5 µM
same,TGI,[10],> 59.7 µM
same,TGI,[11],> 100 µM
same,TGI,[12],> 83.4 µM
same,TGI,[13],> 100 µM
same,TGI,[14],> 44.5 µM
same,TGI,[15],43.6 µM
same,TGI,[16],38.4 µM
same,TGI,[17],> 100 µM
same,TGI,[18],> 79.8 µM
same,TGI,[19],21 µM
same,TGI,[20],> 100 µM
COc1ccc(NC(=O)N(C)CC2(O)CCC(C(C)(C)C)CC2)cc1 (centres undefined),TGI,[1],> 100 µM
same,TGI,[2],> 100 µM
same,TGI,[3],> 100 µM
same,TGI,[4],> 100 µM
same,TGI,[5],99.3 µM
same,TGI,[6],> 100 µM
same,TGI,[7],> 100 µM
same,TGI,[8],> 100 µM
same,TGI,[9],> 100 µM
same,TGI,[10],81.4 µM
same,TGI,[11],> 100 µM
same,TGI,[12],92.9 µM
same,TGI,[13],> 100 µM
same,TGI,[14],> 100 µM
same,TGI,[15],> 100 µM
same,TGI,[16],> 100 µM
same,TGI,[17],> 100 µM
same,TGI,[18],> 100 µM
same,TGI,[19],> 100 µM
same,TGI,[20],97.3 µM
COC(=O)c1ccccc1Nc1nc(-c2cccs2)nc2cc(OC)c(OC)cc12,TGI,[1],> 100 µM
same,TGI,[2],> 100 µM
same,TGI,[3],> 100 µM
same,TGI,[4],> 100 µM
same,TGI,[5],> 100 µM
same,TGI,[6],> 100 µM
same,TGI,[7],> 100 µM
same,TGI,[8],> 100 µM
same,TGI,[9],> 100 µM
same,TGI,[10],72.2 µM
same,TGI,[11],> 100 µM
same,TGI,[12],> 100 µM
same,TGI,[13],> 100 µM
same,TGI,[14],85.9 µM
same,TGI,[15],> 100 µM
same,TGI,[16],> 100 µM
same,TGI,[17],> 100 µM
same,TGI,[18],> 100 µM
same,TGI,[19],> 100 µM
same,TGI,[20],> 100 µM
O=C1NP23(OCCO2)Oc2ccccc2C3(C(F)(F)F)O1 (centres undefined),TGI,[2],> 100 µM
same,TGI,[3],> 100 µM
same,TGI,[4],> 100 µM
same,TGI,[5],> 100 µM
same,TGI,[7],> 100 µM
same,TGI,[8],> 100 µM
same,TGI,[9],> 100 µM
same,TGI,[10],> 100 µM
same,TGI,[13],> 100 µM
same,TGI,[14],> 100 µM
same,TGI,[15],> 100 µM
same,TGI,[16],> 100 µM
same,TGI,[17],> 100 µM
same,TGI,[19],> 100 µM
same,TGI,[20],> 100 µM
O=C(O)C1C2C=CC(C2)C1c1ccccc1 (centres undefined),TGI,[1],> 100 µM
same,TGI,[2],> 100 µM
same,TGI,[3],> 100 µM
same,TGI,[4],> 100 µM
same,TGI,[5],> 100 µM
same,TGI,[6],> 100 µM
same,TGI,[7],> 100 µM
same,TGI,[8],> 100 µM
same,TGI,[10],> 100 µM
same,TGI,[11],> 100 µM
same,TGI,[12],> 100 µM
same,TGI,[13],> 100 µM
same,TGI,[14],> 100 µM
same,TGI,[15],> 100 µM
same,TGI,[16],> 100 µM
same,TGI,[17],> 100 µM
same,TGI,[18],> 100 µM
same,TGI,[19],> 100 µM
same,TGI,[20],> 100 µM
COc1ccc(CC2c3cc(OC)c(OC)cc3CC[N+]2(C)C)cc1OC (centres undefined),TGI,[1],> 100 µM
same,TGI,[2],> 100 µM
same,TGI,[3],> 100 µM
same,TGI,[4],> 100 µM
same,TGI,[5],> 100 µM
same,TGI,[6],> 100 µM
same,TGI,[7],> 100 µM
same,TGI,[8],> 100 µM
same,TGI,[9],> 100 µM
same,TGI,[10],> 100 µM
same,TGI,[11],> 100 µM
same,TGI,[13],> 100 µM
same,TGI,[14],> 100 µM
same,TGI,[15],> 100 µM
same,TGI,[16],> 100 µM
same,TGI,[17],> 100 µM
same,TGI,[19],> 100 µM
same,TGI,[20],> 100 µM
CCC(C)C1NC(=O)C(NC(=O)c2c3[nH]c4c(C(=O)NC5C(=O)NC(C(C)CC)C(=O)N6CCCC6C(=O)N(C)CC(=O)N(C)C(C(C)C)C(=O)OC5C)ccc(C)c4oc-3c(C)c(=O)c2=O)C(C)OC(=O)C(C(C)C)N(C)C(=O)CN(C)C(=O)C2CCCN2C1=O (centres undefined),TGI,[1],39.4 µM
same,TGI,[2],40.4 µM
same,TGI,[3],> 100 µM
same,TGI,[4],29.2 µM
same,TGI,[5],22.8 µM
same,TGI,[6],55.2 µM
same,TGI,[7],45.3 µM
same,TGI,[8],8.45 µM
same,TGI,[9],5.06 µM
same,TGI,[10],62.9 µM
same,TGI,[11],> 100 µM
same,TGI,[12],25 µM
same,TGI,[13],97.4 µM
same,TGI,[14],37.4 µM
same,TGI,[15],17.2 µM
same,TGI,[16],76.3 µM
same,TGI,[17],> 100 µM
same,TGI,[18],4 µM
same,TGI,[19],> 100 µM
same,TGI,[20],17.6 µM
CCOP(=O)(COCCn1ncc(=O)[nH]c1=O)OCC,TGI,[1],> 100 µM
same,TGI,[3],> 100 µM
same,TGI,[4],> 100 µM
same,TGI,[5],> 100 µM
same,TGI,[6],> 100 µM
same,TGI,[7],> 100 µM
same,TGI,[8],> 100 µM
same,TGI,[9],> 100 µM
same,TGI,[10],> 100 µM
same,TGI,[11],> 100 µM
same,TGI,[12],> 100 µM
same,TGI,[13],> 100 µM
same,TGI,[14],> 100 µM
same,TGI,[15],> 100 µM
same,TGI,[16],> 100 µM
same,TGI,[17],> 100 µM
same,TGI,[18],> 100 µM
same,TGI,[19],> 100 µM
COc1c(OC(C)=O)c(OC(C)=O)cc2c1-c1ccc(SC)c(=O)cc1C(NC(C)=O)CC2 (centres undefined),TGI,[1],56 µM
same,TGI,[2],> 100 µM
same,TGI,[3],> 97.5 µM
same,TGI,[4],> 100 µM
same,TGI,[5],> 100 µM
same,TGI,[6],> 100 µM
same,TGI,[7],28.7 µM
same,TGI,[8],> 56.1 µM
same,TGI,[9],0.576 µM
same,TGI,[10],> 100 µM
same,TGI,[11],> 100 µM
same,TGI,[12],> 86.7 µM
same,TGI,[13],> 100 µM
same,TGI,[14],0.846 µM
same,TGI,[15],> 100 µM
same,TGI,[16],> 100 µM
same,TGI,[17],> 100 µM
same,TGI,[18],> 100 µM
same,TGI,[19],> 42.2 µM
same,TGI,[20],> 74.9 µM
Oc1cc(O)cc(-c2nc3cc(F)ccc3s2)c1,TGI,[1],47.1 µM
same,TGI,[2],65.5 µM
same,TGI,[3],61.6 µM
same,TGI,[4],44.8 µM
same,TGI,[5],> 100 µM
same,TGI,[6],55.8 µM
same,TGI,[7],94.5 µM
same,TGI,[8],54 µM
same,TGI,[9],36.9 µM
same,TGI,[10],63.6 µM
same,TGI,[11],57.2 µM
same,TGI,[12],72.4 µM
same,TGI,[13],50.8 µM
same,TGI,[14],68.3 µM
same,TGI,[15],45.1 µM
same,TGI,[16],77 µM
same,TGI,[17],76.4 µM
same,TGI,[19],60.5 µM
same,TGI,[20],40.7 µM
COc1cc(O)c(C(=O)/C=C/c2ccc(O)cc2)cc1Oc1ccc(/C=C/C(=O)c2ccc(O)cc2O)cc1,TGI,[1],14.1 µM
same,TGI,[2],14.7 µM
same,TGI,[3],21 µM
same,TGI,[4],14.2 µM
same,TGI,[5],17.6 µM
same,TGI,[6],36.7 µM
same,TGI,[7],33.2 µM
same,TGI,[8],30.4 µM
same,TGI,[9],16 µM
same,TGI,[10],17 µM
same,TGI,[11],26.4 µM
same,TGI,[12],17.5 µM
same,TGI,[13],20.5 µM
same,TGI,[14],16.2 µM
same,TGI,[15],21.9 µM
same,TGI,[16],15.2 µM
same,TGI,[17],19.4 µM
same,TGI,[18],16.1 µM
same,TGI,[19],17.2 µM
same,TGI,[20],17.6 µM

# — PubChem BioAssay (NCI)
